According to paper PMC12346557, “Design, Synthesis, and Anticancer Evaluation of New Small-Molecule EGFR Inhibitors Targeting NSCLC and Breast Cancer” (International Journal of Molecular Sciences, 2025):

How the values were obtained:
Jurkat cells = test: MTT cytotoxicity assay, Jurkat cells; assay type: cell-based, human; details: for IC50: Homo sapiens, Jurkat, MTT; for SI (Selectivity Index): IC50 for PBMC/IC50 for Jurkat cell line
Procedure: A549 and MCF-7 human cancer cell lines were cultured in Dulbecco’s Modified Eagle’s Medium (DMEM) (Wako Pure Chemical Industries, Osaka, Japan) supplemented with 10% fetal bovine serum (FBS) (Equitech-Bio, Kerrville, TX, USA). […] All media were supplemented with 89 μg/mL of streptomycin (Meiji Seika Pharma, Tokyo, Japan). […] Cancer cells and PBMCs were seeded into 24-well and 96-well microtiter tissue culture plates (Iwaki, Asahi Glass Co., Chiba, Japan) at densities of 4 × 10^4 cells/mL and 5 × 10^5 cells/mL, respectively, and incubated for 72 h prior to drug treatment. The optimal seeding density for cytotoxicity assays was determined through preliminary testing. […] The cellular reduction MTT (Dojindo Molecular Technologies, Kumamoto, Japan) was assessed following established protocols from the literature, with slight modifications.

MCF-7 cells [1] = test: MTT cytotoxicity assay, MCF-7 cells; assay type: cell-based; details: Homo sapiens, triplicate; for inhibition at 100 µM: MCF7, 100 µM, 72 h; for IC50: MCF7, 72 h culture, 1-100 µM
A549 cells [2] = test: MTT cytotoxicity assay, A549 cells; assay type: cell-based, human; details: triplicate; for reduction of A549 cell viability: 100 µM, 72 h; for IC50: Homo sapiens, A549, 72 h culture, 1-100 µM
MCF-7 cells [3] = test: Annexin V/ethidium homodimer-III apoptosis staining, MCF-7 cells; assay type: cell-based, human; details: IC50 concentration, 24 h, compared to control
Procedure: (§1) In this method, green staining indicates apoptotic cells, red indicates necrotic cells, and yellow represents cells in the late stages of apoptosis. This staining was analyzed using a fluorescence microscope. […] Furthermore, the apoptotic effect of B-2 on MCF-7 cells was assessed, showing that 4.3% of the cells underwent apoptosis after treatment, a result that was statistically significant (Figure 5b).
(§2) A549 and MCF-7 cells were treated with B-1 and B-2 at its IC50 concentration for 24 h. Following treatment, the cells were detached using 0.05% trypsin, washed twice with 1× binding buffer, and incubated in the dark at r.t. for 20 min with a staining solution containing 50 μL of 1× binding buffer, 4 μL of FITC-Annexin V solution, 4 μL of ethidium homodimer III solution, and 4 μL of Hoechst 33342 solution. After staining, the cells were washed again with 1× binding buffer, fixed in 2% paraformaldehyde, rinsed with PBS, and analyzed using the Biorevo Fluorescence BZ-9000 all-in-one fluorescence microscope (Keyence, Osaka, Japan).

[4] = target: T1, recombinant human EGFR (amino acids 695 to C-terminus) (Homo sapiens, UniProt P00533); test: EGFR Kinase Enzyme System / ADP-Glo kinase assay; assay type: biochemical
T1 construct: recombinant human EGFR (amino acids 695 to C-terminus); purchased Promega Corporation V3831
T1 sequence (P00533 695-1210 limits assumed): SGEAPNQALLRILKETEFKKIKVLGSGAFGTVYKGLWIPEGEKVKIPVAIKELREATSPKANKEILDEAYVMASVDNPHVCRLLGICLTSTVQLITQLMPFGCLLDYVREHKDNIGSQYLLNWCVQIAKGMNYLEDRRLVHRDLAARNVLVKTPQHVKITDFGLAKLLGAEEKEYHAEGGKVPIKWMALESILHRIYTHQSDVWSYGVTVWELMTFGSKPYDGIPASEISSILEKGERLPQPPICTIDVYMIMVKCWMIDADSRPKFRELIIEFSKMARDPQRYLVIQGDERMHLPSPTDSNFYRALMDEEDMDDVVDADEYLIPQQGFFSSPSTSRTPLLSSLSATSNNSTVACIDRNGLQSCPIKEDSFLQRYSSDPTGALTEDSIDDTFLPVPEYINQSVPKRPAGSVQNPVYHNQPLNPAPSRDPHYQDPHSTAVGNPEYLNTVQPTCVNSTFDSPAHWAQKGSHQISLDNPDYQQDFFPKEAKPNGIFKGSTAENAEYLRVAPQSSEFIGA
Procedure: Overexpression or mutation of the EGFR gene markedly enhances cell growth and proliferation, particularly in NSCLC [41] and breast cancer, making EGFR a well-established and effective therapeutic target for these diseases. Due to their potent activity against NSCLC and breast cancer, B-1 and B-2 were further examined for their potential to inhibit EGFR.
The kinase profiling assay (EGFR Kinase Enzyme System, V3831) was conducted according to the manufacturer’s protocol (Promega Corporation, Madison, WI, USA), with minor modifications. In brief, 95 μL of 2.5× kinase buffer and 15 μL of 100 μM ATP solution were used to prepare dilutions of recombinant human EGFR (amino acids 695 to C-terminus) and its substrate (4:1 Glu:Tyr mixture). Reactions were set up in a 384-well plate, each containing 2 μL of kinase working stock, 2 μL of ATP/substrate working stock, and 1 μL of test compound solution or 5% DMSO as a control. After a 2 h incubation at r.t., kinase activity was measured using the ADP-Glo Kinase Assay (Promega), following the manufacturer’s instructions. Specifically, 5 μL of ADP-Glo Reagent was added to each well and incubated for 40 min, followed by 10 μL of Kinase Detection Reagent and a further 30 min incubation at r.t. Luminescence was recorded using the Infinite M1000 microplate reader (Tecan, Grödig, Austria) with an integration time of 0.5 to 1 s to assess the compounds’ kinase inhibitory effects in a dose-dependent manner.

PBMCs = test: MTT cytotoxicity assay, PBMCs (healthy); assay type: cell-based; details: PBMC
Procedure: A549 and MCF-7 human cancer cell lines were cultured in Dulbecco’s Modified Eagle’s Medium (DMEM) (Wako Pure Chemical Industries, Osaka, Japan) supplemented with 10% fetal bovine serum (FBS) (Equitech-Bio, Kerrville, TX, USA). Jurkat cells, derived from human leukemia, were maintained in RPMI 1640 medium (Wako Pure Chemical Industries) with 10% FBS. PBMCs (Precision Bioservices, Frederick, MD, USA) were cultured in RPMI 1640 medium supplemented with 10% human AB serum (HS) (Gemini, Woodland, CA, USA). All media were supplemented with 89 μg/mL of streptomycin (Meiji Seika Pharma, Tokyo, Japan). Cells were incubated at 37 °C in a humidified atmosphere containing 95% air and 5% CO2. Cancer cells and PBMCs were seeded into 24-well and 96-well microtiter tissue culture plates (Iwaki, Asahi Glass Co., Chiba, Japan) at densities of 4 × 10^4 cells/mL and 5 × 10^5 cells/mL, respectively, and incubated for 72 h prior to drug treatment. The optimal seeding density for cytotoxicity assays was determined through preliminary testing. […] The cellular reduction MTT (Dojindo Molecular Technologies, Kumamoto, Japan) was assessed following established protocols from the literature, with slight modifications.

A549 cells [5] = test: Annexin V/ethidium homodimer-III apoptosis staining, A549 cells; assay type: cell-based, human; details: IC50 concentration, 24 h, compared to control
Procedure: as §1, §2

| SMILES | IC50 (Jurkat cells) | SI (Selectivity Index) (Jurkat cells) | inhibition at 100 µM (MCF-7 cells [1]) | IC50 (MCF-7 cells [1]) | reduction of A549 cell viability (A549 cells [2]) | IC50 (A549 cells [2]) | apoptosis in MCF-7 cells (MCF-7 cells [3]) | EGFR inhibition ([4]; 1 μM) | EGFR inhibition ([4]; 10 μM) | IC50 (PBMCs) | apoptosis in A549 cells (A549 cells [5]) | inhibition at 1 µM ([4]; 1 μM) | inhibition at 10 µM ([4]; 10 μM) |
| --- | --- | --- | --- | --- | --- | --- | --- | --- | --- | --- | --- | --- | --- |
| Cc1ccc(C(=O)/C=C/c2cnc(-c3ccc(Cl)cc3)nc2)cc1 [Compound B-1, (E)-3-(2-(4-Chlorophenyl)pyrimidin-5-yl)-1-(4-methylphenyl)-2-propen-1-one] | 2120 ± 480 nM | 57.08 | 73% | 6.1 ± 1.26 µM | 38% | > 100000 nM | 11.6% | no inhibitory effect | no inhibitory effect | 121 ± 14.8 µM | – | – | – |
| COc1ccc(C(=O)/C=C/c2cnc(-c3ccc(Cl)cc3)nc2)cc1 [Compound B-2, (E)-3-(2-(4-Chlorophenyl)pyrimidin-5-yl)-1-(4-methoxyphenyl)-2-propen-1-one] | 2960 ± 440 nM | 23.20 | 52% | 8.91 ± 1.38 µM | 73% | 2140 ± 830 nM | 4.3% | – | – | 68.7 ± 9.82 µM | 16.8% | 26% | 66% |
